Assay results: ChEMBL document CHEMBL4371067, “Discovery of N-substituted 7-azaindoles as Pan-PIM kinases inhibitors - Lead optimization - Part III” (Bioorg Med Chem Lett, 2019)
Values after ≈ are worked out from the molar mass of the structure shown.

Key:
[1] = Clearance in mouse liver microsomes assessed as drug extraction at 5 uM; type: ADME, Microsome; details: for CLH: microsomes, 5 µM; for hepatic extraction ratio at 5 µM: liver microsomes, read-out: CLH
[2] = target: Voltage-gated inwardly rectifying potassium channel KCNH2 (Homo sapiens, UniProt Q12809); assay: Inhibition of human ERG
[3] = target: Serine/threonine-protein kinase pim-2 (Homo sapiens, UniProt Q9P1W9); assay: Inhibition of PIM2 (unknown origin) assessed as reduction in BAD phosphorylation at Ser-112 residue by TR-FRET assay
KG-1 = assay: Antiproliferative activity against human KG1 cells; type: functional, cell-based
[4] = target: Serine/threonine-protein kinase PIM (Homo sapiens, UniProt P11309+Q9P1W9+Q86V86); assay: Inhibition of PIM in human KG1 cells assessed as reduction in pS6 level; type: cell-based
[5] = target: Serine/threonine-protein kinase pim-1 (Homo sapiens, UniProt P11309); assay: Inhibition of PIM1 (unknown origin) assessed as reduction in BAD phosphorylation at Ser-112 residue by TR-FRET assay
[6] = Permeability in human Caco2/TC7 cells at 5 uM; type: ADME, cell-based; details: for permeability: caco2/tc7, 5 µM, 5 µM; for Papp at 5 µM: Caco-2, read-out: permeability
[7] = Clearance in human liver microsomes assessed as drug extraction at 5 uM; type: ADME, Microsome; details: for CLH: microsomes, 5 µM; for hepatic extraction ratio at 5 µM: liver microsomes, read-out: CLH
[8] = Half life in rat at 10 mg/kg, po administered as single dose; type: ADME, organism-based; details: in vivo
[9] = Oral bioavailability in rat at 10 mg/kg administered as single dose; type: ADME, organism-based; details: in vivo
[10] = Cmax in rat at 10 mg/kg, po administered as single dose; type: ADME, organism-based; set-up: dose 10 mg/kg, route oral; details: in vivo
[11] = AUC (0 to infinity) in rat at 3 mg/kg, iv administered as single dose; type: ADME, organism-based; set-up: dose 3 mg/kg, route intravenous, time infinity; details: in vivo
[12] = Half life in rat at 3 mg/kg, iv administered as single dose; type: ADME, organism-based; details: in vivo
[13] = Clearance in rat at 3 mg/kg, iv administered as single dose; type: ADME, organism-based; details: in vivo
[14] = AUC (0 to infinity) in rat at 10 mg/kg, po administered as single dose; type: ADME, organism-based; set-up: dose 10 mg/kg, route oral, time infinity; details: in vivo
[15] = Volume of distribution at steady state in rat at 3 mg/kg, iv administered as single dose; type: ADME, organism-based; details: in vivo, read-out: Vdss
hERG (KCNH2) [16] = target: T1, hERG (KCNH2) (Homo sapiens, UniProt Q12809); assay: Inhibition of human ERG at 10 uM relative to control
hERG (KCNH2) [17] = target: T1, hERG (KCNH2); assay: Inhibition of human ERG at 1 uM relative to control
[18] = Efflux ratio of permeability in human Caco2/TC7 cells at 5 uM; type: ADME, cell-based; details: Caco-2
[19] = Thermodynamic solubility in pH 7.4 solution; type: physicochemical; details: buffer, read-out: Therm_solubility

Structure (SMILES) | IC50 [3] | EC50 [4] | IC50 [5] | Ki [5] | hepatic extraction ratio at 5 µM [7] | hepatic extraction ratio at 5 µM [1] | Papp at 5 µM [6] | IC50 [2] | EC50 (KG-1; Homo sapiens, KG-1) | inhibition at 10 µM (hERG (KCNH2) [16]) | inhibition at 1 µM (hERG (KCNH2) [17]) | further results
NC(=O)c1cc(Cl)c2c(Cl)c(C#CC3CNCCO3)n([C@H]3CCCNC3)c2n1 (stereo in doubt; 29b) | 7.6 nM | 51 nM | 1.4 nM | 0.9 nM |  |  |  | > 20000 nM |  |  |  | CLH [1]: 15%; EC50 (KG-1; kg-1): 197 nM; permeability [6]: 2 ×10⁻⁷ cm/s; CLH [7]: 0%
NC(=O)c1cc(Cl)c2c(Cl)c(C#CC3COCCO3)n([C@H]3CCCNC3)c2n1 (stereo in doubt; 22a) | 8.8 nM | 70 nM | 2.3 nM |  | 0.1 |  |  | 1400 nM |  |  |  | CLH [1]: 30%; EC50 (KG-1; kg-1): 77 nM; permeability [6]: 81 ×10⁻⁷ cm/s
NC(=O)c1cc(Cl)c2c(Cl)c(C#CC3CCOCC3)n([C@H]3CCCNC3)c2n1 | 10.2 nM | 53 nM | 1.5 nM |  | 0.07 | 0.13 | 3.4 ×10⁻⁶ cm/s | 1700 nM | 69 nM |  |  | half-life [8]: 10.2 h; bioavailability [9]: 67%; Cmax [10]: 91 ng/mL; AUC(0-inf) [11]: 440 ng·h/mL; half-life [12]: 7.41 h; clearance [13]: 102 mL/min/kg; AUC(0-inf) [14]: 979 ng·h/mL; Vd [15]: 63 L/kg
CC(C)(C#N)CC#Cc1c(Cl)c2c(Cl)cc(C(N)=O)nc2n1[C@H]1CCCNC1 | 29.4 nM | 90 nM | 5.8 nM |  | 0.03 | 0.08 | 6.5 ×10⁻⁶ cm/s | 3000 nM | 113 nM |  |  | 
CN1CC(C#Cc2c(Cl)c3c(Cl)cc(C(N)=O)nc3n2[C@H]2CCCNC2)CC1=O (some centres undefined) | 17.5 nM | 128 nM | 3.1 nM | 1.2 nM | 0.05 | 0.22 | 0.05 ×10⁻⁶ cm/s | > 20000 nM | 155 nM |  |  | 
CC1(CC#Cc2c(Cl)c3c(Cl)cc(C(N)=O)nc3n2[C@H]2CCCNC2)COC1 | 15.7 nM | 33 nM | 2.4 nM |  | 0.12 | 0.35 | 1.2 ×10⁻⁶ cm/s | 5000 nM | 289 nM |  |  | 
CC(O)C#Cc1c(Cl)c2c(Cl)cc(C(N)=O)nc2n1[C@H]1CCCNC1 (some centres undefined) | 9.3 nM | 13 nM | 1.1 nM | 0.7 nM | 0 |  | 0.34 ×10⁻⁶ cm/s |  | 147 nM | 20% | 9% | efflux ratio at 5 µM [18]: 37; solubility thermodynamic [19]: 206 µM (≈ 78.5 µg/mL)
NC(=O)c1cc(Cl)c2c(Cl)c(C#CCN3CCCC3=O)n([C@H]3CCCNC3)c2n1 | 6.7 nM | 93 nM | 2 nM |  | 0.03 | 0.26 | 0.01 ×10⁻⁶ cm/s | > 20000 nM | 178 nM |  |  | 
COC(C)(C)CC#Cc1c(Cl)c2c(Cl)cc(C(N)=O)nc2n1[C@H]1CCCNC1 | 10.4 nM | 61 nM | 2.3 nM |  | 0.12 | 0.33 | 4.5 ×10⁻⁶ cm/s | 4000 nM | 172 nM |  |  | solubility thermodynamic [19]: 1.2 µM (≈ 0.508 µg/mL)
NC(=O)c1cc(Cl)c2c(Cl)c(C#CCO)n([C@H]3CCCNC3)c2n1 | 11 nM | 59 nM | 1.7 nM | 3 nM | 0 |  | 0.08 ×10⁻⁶ cm/s |  | 301 nM | 28% | 22% | efflux ratio at 5 µM [18]: 120
NC(=O)c1cc(Cl)c2c(Cl)c(C#CC3CCCO3)n([C@H]3CCCNC3)c2n1 (stereo in doubt; 20a) | 21 nM | 137 nM | 4.4 nM |  |  |  | 3.2 ×10⁻⁶ cm/s |  |  |  |  | EC50 (KG-1; kg-1): 223 nM; solubility thermodynamic [19]: 207 µM (≈ 84.3 µg/mL)
CC(C)(O)C#Cc1c(Cl)c2c(Cl)cc(C(N)=O)nc2n1[C@H]1CCCNC1 | 9.9 nM | 36 nM | 2.2 nM |  | 0 |  | 0.14 ×10⁻⁶ cm/s |  | 302 nM | 47% | 20% | 
CC(C)(CC#Cc1c(Cl)c2c(Cl)cc(C(N)=O)nc2n1[C@H]1CCCNC1)C(N)=O | 21 nM | 133 nM | 4.7 nM |  | 0.01 | 0.06 | 0.4 ×10⁻⁶ cm/s | > 10000 nM | 269 nM |  |  | 

These reach a lower IC50 [3]. Values come first.

IC50 [3] | EC50 [4] | IC50 [5] | Ki [5] | hepatic extraction ratio at 5 µM [7] | hepatic extraction ratio at 5 µM [1] | Papp at 5 µM [6] | Structure (SMILES) | IC50 [2] | EC50 (KG-1; Homo sapiens, KG-1) | inhibition at 10 µM (hERG (KCNH2) [16]) | inhibition at 1 µM (hERG (KCNH2) [17]) | further results
6 nM | 95 nM | 2.3 nM |  |  |  |  | NC(=O)c1cc(Cl)c2c(Cl)c(C#CC3COCCO3)n([C@H]3CCCNC3)c2n1 (stereo in doubt; 22b) |  |  | 86% | 20% | CLH [1]: 4%; EC50 (KG-1; kg-1): 203 nM; permeability [6]: 9 ×10⁻⁷ cm/s; CLH [7]: 10%
4 nM | 98 nM | 1.6 nM |  | 0.1 | 0.32 | 4.8 ×10⁻⁶ cm/s | COCC(C)(C)C#Cc1c(Cl)c2c(Cl)cc(C(N)=O)nc2n1[C@H]1CCCNC1 | 1100 nM | 219 nM |  |  | 
6.1 nM | 32 nM | 1 nM | 0.6 nM | 0.06 |  | 0.24 ×10⁻⁶ cm/s | CC(O)CC#Cc1c(Cl)c2c(Cl)cc(C(N)=O)nc2n1[C@H]1CCCNC1 (some centres undefined) |  | 48 nM | 23% | 13% | efflux ratio at 5 µM [18]: 53; solubility thermodynamic [19]: 760 µM (≈ 300 µg/mL)
6.1 nM | 283 nM | 2.8 nM |  |  | 0.22 |  | NC(=O)c1cc(Cl)c2c(Cl)c(C#CC3CNCCO3)n([C@H]3CCCNC3)c2n1 (stereo in doubt; 29a) | 6000 nM | 365 nM |  |  | permeability [6]: 8 ×10⁻⁷ cm/s; CLH [7]: 6%
5.7 nM | 37 nM | 1.6 nM | 1.2 nM | 0.05 | 0.19 | 2.9 ×10⁻⁶ cm/s | CC1(C#Cc2c(Cl)c3c(Cl)cc(C(N)=O)nc3n2[C@H]2CCCNC2)COC1 | 3000 nM | 119 nM |  |  | 
2.7 nM | 18 nM | 0.6 nM | 0.1 nM | 0 |  | 0.18 ×10⁻⁶ cm/s | NC(=O)c1cc(Cl)c2c(Cl)c(C#CCCO)n([C@H]3CCCNC3)c2n1 |  | 56 nM | 25% | 12% | efflux ratio at 5 µM [18]: 8.8; solubility thermodynamic [19]: 144 µM (≈ 54.9 µg/mL)
